Reference: patent publication US10493070B2 (priority 2016, dated 2019)
pEC50: −log10 of the molar value.

Tested on: recombinant NL4-3 virus (NLRluc, Renilla luciferase in nef, Gag P373S)
Assay: HIV cell culture assay (Renilla luciferase reporter virus in MT-2 cells)
Assay type: cell-based
Conditions: Renilla, NL43, read-out: 10% FBS EC50, 10% FBS, class symbols A/B/C
Summary of the method: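 MT-2 cells infected with NL4-3 reporter virus (Renilla luciferase replacing part of nef, Gag P373S), made by 293T transfection and titered in MT-2 cells by luciferase. Infection runs 4–5 days with serial inhibitor dilutions. Antiviral activity read as Renilla luciferase activity (Dual Luciferase reagents).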

| SMILES | pEC50 |
| --- | --- |
| CC1(C)C(c2ccc(C(=O)O)cc2)=CC[C@]2(C)CN(C(=O)c3cccc(C(=O)N4CC=C5C(C)(C)C(c6ccc(C(=O)O)cc6)=CC[C@]5(C)C4)c3)CC=C12 [Example 58, 4,4′-((8aS,8a′S)-isophthaloylbis(5,5,8a-trimethyl-1,2,3,5,8,8a-hexahydroisoquinoline-2,6-diyl))dibenzoic acid] | > 6.30 |
| COCCn1c(-c2ccccc2C(=O)N2CC=C3C(C)(C)C(c4ccc(C(=O)O)cc4)=CC[C@]3(C)C2)nc2cc(C(=O)O)ccc21 [Example A296] | < 5.52 |
| CC(=O)NCCn1c(-c2ccccc2C(=O)N2CC=C3C(C)(C)C(c4ccc(C(=O)O)cc4)=CC[C@]3(C)C2)nc2cc(C(=O)O)ccc21 [Example A294] | < 5.52 |
| CC1(C)C(c2ccc(C(=O)O)cc2)=CC[C@]2(C)CN(C(=O)c3ccc(C(=O)NCCCN4CCS(=O)(=O)CC4)s3)CC=C12 [Example 72] | < 5.52 |
| Cc1cc(Cl)cc2[nH]c(-c3ccccc3C(=O)N3CC=C4C(C)(C)C(c5ccc(C(=O)O)cc5)=CC[C@]4(C)C3)nc12 [Example A271] | > 6.30 |
| CN(C)c1cccc(C(=O)N2CC=C3C(C)(C)C(c4ccc(C(=O)O)cc4)=CC[C@]3(C)C2)c1 [Example 24] | < 5.52 |
| CC1(C)C(c2ccc(C(=O)O)cc2)=CC[C@]2(C)CN(C(=O)c3cc(F)cc(F)c3)CC=C12 [Example 8] | < 5.52 |
| CC1(C)C(c2ccc(C(=O)O)cc2)=CC[C@]2(C)CN(C(=O)c3cccc(CN4CCS(=O)(=O)CC4)c3)CC=C12 [Example 38] | < 5.52 |
| CC1(C)C(c2ccc(C(=O)O)cc2)=CC[C@]2(C)CN(C(=O)c3cscc3C(=O)NCCCN3CCS(=O)(=O)CC3)CC=C12 [Example 73] | < 5.52 |
| CC1(C)C(c2ccc(C(=O)O)cc2)=CC[C@]2(C)CN(C(=O)C(=O)N3CCC[C@H]3C(=O)NCCCN3CCS(=O)(=O)CC3)CC[C@@H]12 [Example C2, 4-((4aS,8aS)-2-(2-((S)-2-((3-(1,1-dioxidothiomorpholino)propyl)carbamoyl)pyrrolidin-1-yl)-2-oxoacetyl)-5,5,8a-trimethyl-1,2,3,4,4a,5,8,8a-octahydroisoquinolin-6-yl)benzoic acid] | < 5.52 |
| CC1(C)C(c2ccc(C(=O)O)cc2)=CC[C@]2(C)CN(c3cc(N)cc(-c4nnn(CCN5CCS(=O)(=O)CC5)n4)c3)CC=C12 [Example B3, (S)-4-(2-(3-amino-5-(2-(2-(1,1-dioxidothiomorpholino)ethyl)-2H-tetrazol-5-yl)phenyl)-5,5,8a-trimethyl-1,2,3,5,8,8a-hexahydroisoquinolin-6-yl)benzoic acid] | < 5.52 |
| CC1(C)C(c2ccc(C(=O)O)cc2)=CC[C@]2(C)CN(C(=O)c3ccc(C(N)=O)cc3)CC=C12 [Example 22] | < 5.52 |
| CC(C)(C)OC(=O)N1CCCCC1CCC(=O)N1CCC(C(=O)N2CC=C3C(C)(C)C(c4ccc(C(=O)O)cc4)=CC[C@]3(C)C2)(c2ccccc2)CC1 (some centres unmarked) [Example A168] | > 6.30 |
| CC1(C)C(c2ccc(C(=O)O)cc2)=CC[C@]2(C)CN(C(=O)c3ccccc3C(=O)O)CC=C12 [Example 14] | < 5.52 |
| CC1(C)C(c2ccc(C(=O)O)cc2)=CC[C@]2(C)CN(C(=O)C(=O)N3CCC[C@H]3C(=O)NCCN3CCS(=O)(=O)CC3)CC[C@@H]12 [Example C1, 4-((4aS,8aS)-2-(2-((S)-2-((2-(1,1-dioxidothiomorpholino)ethyl)carbamoyl)pyrrolidin-1-yl)-2-oxoacetyl)-5,5,8a-trimethyl-1,2,3,4,4a,5,8,8a-octahydroisoquinolin-6-yl)benzoic acid] | < 5.52 |
| CC1(C)C(c2ccc(C(=O)O)cc2)=CC[C@]2(C)CN(C(=O)c3ccccc3-c3nc4ccc(Cl)cc4o3)CC=C12 [Example A318] | > 6.30 |
| COc1ccc(C(=O)N2CC=C3C(C)(C)C(c4ccc(C(=O)O)cc4)=CC[C@]3(C)C2)cc1 [Example 19] | < 5.52 |
| CC1(C)C(c2ccc(C(=O)O)cc2)=CC[C@]2(C)CN(C(=O)C(=O)O)CC=C12 [Example 10] | < 5.52 |
| CC1(C)C(c2ccc(C(=O)O)cc2)=CC[C@]2(C)CN(c3ccc(C(N)=O)cc3)CC=C12 [Example B17] | < 5.52 |
| CN1CCC2C(C)(C)[C@H](c3ccc(C(=O)O)cc3)CC[C@]2(C)C1 (single isomer, unassigned) [Example 90] | < 5.52 |
| CC1(C)C(c2ccc(C(=O)O)cc2)=CC[C@]2(C)CN(C(=O)c3cccc(C(=O)NCCCN4CCS(=O)(=O)CC4)n3)CC=C12 [Example 70] | < 5.52 |
| CC1(C)C(c2ccc(C(=O)O)cc2)=CC[C@]2(C)CN(C(=O)c3ccccc3-c3nc4cc(F)c(F)cc4o3)CC=C12 [Example A338] | 5.52 to 6.30 |
| CC1(C)C(c2ccc(C(=O)O)cc2)=CC[C@@]2(C)CN(C(=O)c3ccccc3-c3nc4c(ccc5ccccc54)o3)CC=C12 [Example A324] | > 6.30 |
| COc1ccc2nc(-c3ccccc3C(=O)N3CC=C4C(C)(C)C(c5ccc(C(=O)O)cc5)=CC[C@]4(C)C3)oc2c1 [Example A334] | > 6.30 |
| CC(C)(C)OC(=O)N[C@H]1CC[C@H](C(=O)N2CC=C3C(C)(C)C(c4ccc(C(=O)O)cc4)=CC[C@]3(C)C2)CC1 [Example 15] | < 5.52 |

Same assay, conditions: Renilla, NL43, read-out: 10% FBS EC50, 10% FBS, numeric values

| SMILES | pEC50 |
| --- | --- |
| CC1(C)C(c2ccc(C(=O)O)cc2)=CC[C@]2(C)CN(c3ncnc(N4CC=C5C(C)(C)C(c6ccc(C(=O)O)cc6)=CC[C@]5(C)C4)n3)CC=C12 [Example 75] | 6.72 |
| CC1(C)C(c2ccc(C(=O)O)cc2)=CC[C@]2(C)CN(c3cccc(Br)n3)CC=C12 [Example 76] | 6.01 |
| CC1(C)C(c2ccc(C(=O)O)cc2)=CC[C@]2(C)CN(C(=O)C3(c4ccccc4)CCN(C(=O)CN4CCS(=O)(=O)CC4)CC3)CC=C12 [Example 94] | 5.86 |
| CC1(C)C(c2ccc(C(=O)O)cc2)=CC[C@]2(C)CN(C(=O)c3ccccc3-c3nc4cc(Cl)c(Cl)cc4n3CCc3ccccc3)CC=C12 [Example A277] | 5.65 |
| CC(C)(C)OC(=O)N1CCC(Cc2ccccc2)(C(=O)N2CC=C3C(C)(C)C(c4ccc(C(=O)O)cc4)=CC[C@]3(C)C2)CC1 [Example 47] | 5.97 |
| CC1(C)C(c2ccc(C(=O)O)cc2)=CC[C@]2(C)CN(C(=O)c3ccccc3-c3nc4cc(Br)ccc4o3)CC=C12 [Example A315] | 6.90 |
| CC1(C)C(c2ccc(C(=O)O)cc2)=CC[C@]2(C)CN(C(=O)c3[nH]c4ccccc4c3-c3ccccc3)CC=C12 [Example A112] | 5.96 |
| COc1ccc(S(=O)(=O)Cc2ccccc2)cc1C(=O)N1CC=C2C(C)(C)C(c3ccc(C(=O)O)cc3)=CC[C@]2(C)C1 [Example 32] | 6.18 |
| CC1(C)C(c2ccc(C(=O)O)cc2)=CC[C@]2(C)CN(C(=O)c3ccccc3-c3ccc(C#N)cc3)CC=C12 [Example A71] | 5.89 |
| CC1(C)C(c2ccc(C(=O)O)cc2)=CC[C@]2(C)CN(C(=O)C3C4CCC(C4)C3C(=O)N3CC=C4C(C)(C)C(c5ccc(C(=O)O)cc5)=CC[C@]4(C)C3)CC=C12 (some centres unmarked) [Example 65] | 5.55 |
| CC1(C)C(c2ccc(C(=O)O)cc2)=CC[C@]2(C)CN(C(=O)C3(c4ccccc4)CCN(S(=O)(=O)CCCCl)CC3)CC=C12 [Example A197] | 6.83 |
| Cc1ccc2nc(-c3ccccc3C(=O)N3CC=C4C(C)(C)C(c5ccc(C(=O)O)cc5)=CC[C@]4(C)C3)oc2c1 [Example A326] | 6.59 |
| CC1(C)C(c2ccc(C(=O)O)cc2)=CC[C@]2(C)CN(C(=O)C3(Cc4ccccc4)CCNCC3)CC=C12 [Example 55] | 5.52 |
| CC1(C)C(c2ccc(C(=O)O)cc2)=CC[C@]2(C)CN(C(=O)c3ccccc3-c3nc4ccccc4[nH]3)CC=C12 [Example A114] | 7.28 |
| CC1(C)C(c2ccc(C(=O)O)cc2)=CC[C@]2(C)CN(C(=O)c3ccccc3-c3nc4cc([N+](=O)[O-])ccc4[nH]3)CC=C12 [Example A273] | 7.20 |
| CC1(C)C(c2ccc(C(=O)O)cc2)=CC[C@]2(C)CN(C(=O)C3(c4ccccc4)CCN(CCN4CCS(=O)(=O)CC4)CC3)CC=C12 [Example 96, (S)-4-(2-(1-(2-(1,1-dioxidothiomorpholino)ethyl)-4-phenylpiperidine-4-carbonyl)-5,5,8a-trimethyl-1,2,3,5,8,8a-hexahydroisoquinolin-6-yl)benzoic acid] | 5.87 |
